Assays:
Assay type in all cases: in vivo
rats = experiment: Effects on bile flow, sinusoidal blood flow, blood pressure and heart rate (rats); conditions: compared with equimolar amounts of sodium glycocholate
hamsters = experiment: Effects on bile flow, sinusoidal blood flow, blood pressure and heart rate (hamsters); conditions: compared with equimolar amounts of sodium glycocholate
[1] = Biliary excretion after intraduodenal injection (enterohepatic circulation)
Procedure: In another group of experiments, FITC-GC was injected intraduodenally and bile samples collected for a period of two hours. More than 90% of the injected conjugate was excreted in the bile. […] It is these characteristics of fluoresceintly labelled bile acids which make them valuable as diagnostic agents and research tools.

[2] = Liver blood flow measurement by plasma elimination of injected FITC-GC; conditions: 9 kg dog
Procedure: The use of FITC bile acid for measuring liver blood flow has been tested in a dog. The following experimental protocol was followed.
15 μmoles of FITC-labelled glycocholic bile acid (FITC-GC) in 2 ml normal saline were injected into a 9 kg dog. Serial blood samples were taken into heparinized containers at 2, 4, 6, 8, and 10 minutes following the initial injection. The samples were then centrifuged for 5 minutes and the plasma collected. The concentration of FITC-GC in each plasma sample was measured with a PERKIN-ELMERS* spectrophlourimeter, using a previously determined calibration curve for FITC-GC solutions in plasma.
Therefore plasma clearance was calculated as [formula] M-amount of material injected and k=const. (k=1 for 100% extraction, 0.9 for 90% extraction), thus [formula] where [formula] is the slope of the line for concentration vs. time plot on a semi-log paper, and Co is the initial concentration (log Co is determined as an intercept of the plot with the concentration axis). For the purpose of calculating plasma clearance, k was assumed to equal 0.9.
Liver blood flow was then calculated from the plasma clearance value using the previously determined blood hematocrit (Htc) value as follows: [formula]

C[C@H](CCC(=O)NCC(=O)O)[C@H]1CC[C@H]2[C@@H]3[C@H](O)C[C@@H]4C[C@H](OC(=S)Nc5ccc6c(c5)C5(OC6=O)c6ccc(O)cc6Oc6cc(O)ccc65)CC[C@]4(C)[C@H]3C[C@H](O)[C@]12C [FITC-GC, fluorescein isothiocyanate-sodium glycocholate]
effect on bile flow (rats): the same effects | effect on blood pressure (rats): the same effects | effect on heart rate (rats): the same effects | effect on sinusoidal blood flow (rats): the same effects | effect on bile flow (hamsters): the same effects | effect on blood pressure (hamsters): the same effects | effect on heart rate (hamsters): the same effects | effect on sinusoidal blood flow (hamsters): the same effects | dose excreted at 2 h ([1]; injected intraduodenally, bile collected for two hours, read-out: injected conjugate excreted in the bile): > 90% | enterohepatic circulation ([1]; intraduodenal injection and reinjection of bile): undergoes an enterohepatic circulation | elimination of the injected conjugate via bile after reinjection of collected bile ([1]; reinjection into the duodenum of the bile collected): almost complete elimination | liver blood flow ([2]; 15 μmoles FITC-GC injected in 2 ml normal saline, samples at 2-10 minutes, k assumed 0.9, corrected for hematocrit): 194 mL/min | concentration values in plasma serial samples (decline) ([2]; 15 μmoles injected, 2, 4, 6, 8 and 10 minutes): monoexponential decline
